Patent publication US9149492B2, “Method for selectively inhibiting ACAT1 in the treatment of alzheimer's disease” (Trustees of Dartmouth College, priority 2008, dated 2015)
Peptide text beside a SMILES is read from it.

How the values were obtained:
[1] = system: hippocampal neurons from A1+/Alz mice; test: 24SOH treatment of hippocampal neurons, hAPP and HMGR content; format: cell-based, mouse
Procedure: Hippocampal neurons were isolated from A1+/Alz and A1−/Alz mice at postnatal day 5 according to standard protocols (Brewer (1997) J. Neurosci. Methods 71:143-155; Price & Brewer (2001) In Protocols for Neural Cell Culture. Fedoroff & Richardson, editors. Totowa, N.J.: Humana Press, Inc. 255-264). Cells were seeded in 6-well dishes in triplicates at 300,000 cells/well, and grown in 3 ml/well Neurobasal A medium with 1×B27, 0.5 mM L-Gln and 5 ng/ml FGF for 14 days. Half of the medium was replaced with […] fresh media once every 7 days. Forty-eight hours after the second media replacement, 50 μCi of [^3H] sodium acetate (100 mCi/mmol) in PBS was added per well for 3 hours. Lipids in cells and in media were extracted, saponified, and analyzed by using the same TLC system described herein. To minimize sterol oxidation, samples were protected from light and heat during lipid extraction, and were analyzed without storage. To improve separation, after sample loading, the TLC plate was placed under vacuum for 30 minutes prior to chromatography. ^3H-labeled sterol bands were identified based on iodine staining of unlabeled sterols added to samples prior to lipid extraction. Rf values: lanosterol, 0.5; cholesterol, 0.38; 24SOH, 0.2. The bands were scraped off and counted. For each labeled sterol, the counts present in cells and in media were added to calculate the synthesis rate for that sterol. Cholesterol esterification in intact cells was conducted according to established methods (Chang, et al. (1986) Biochemistry 25:1693-1699); the ^3H-oleate pulse time was 3 hours.
To test this, hippocampal neurons from A1+/Alz mice were treated with 24SOH, and the hAPP protein content and the HMGR protein content were monitored in parallel.

WT or A1-microglia = test: Pulse-chase of intracellular oAβ42 degradation in microglia with lysosomal inhibitors; format: cell-based, mouse; settings: pre-incubation with inhibitor, 0.5 μM oAβ 30 minutes, 6 hours chase
Procedure: WT or A1-microglia were pretreated with DMSO only; with bafilomycin A1 (BafA1), a lysosomal v-ATPase inhibitor (250 nM); with Ac-LVK-CHO, a cell permeable cathepsin B inhibitor (CapB I) at 1 μM; or with pepstatin A methyl ester, a cell permeable aspartyl peptidase inhibitor at 25 μM, for 60 minutes. Cells with or without the inhibitors were further incubated with 0.5 μM oAβ for 30 minutes. Cells were washed with pre-warmed PBS (twice) and pre-warmed medium (once) and then further incubated in fresh serum-free DMEM/F-12 (50:50) for 6 hours. At the end of incubation, cells were washed with PBS twice and lysed with 1% SDS containing a protease inhibitor cocktail. Intracellular oAβ levels were examined by ELISA. The values were normalized by cellular protein contents. The data are averages of 3-4 independent experiments. (mean±SEM, n.s. not significant, *p<0.05, p<0.01, ***p<0.001).
Pulse-chase of oAβ42 was also carried out (FIG. 4A) and the fate of oAβ42 was monitored via an ELISA assay.

AD mice = settings: in vivo, cited from earlier work
[2] = system: transgenic mice expressing human APP(751) containing the London (V717I) and Swedish (K670M/N671L) mutations; settings: cited from earlier work
WT microglia = test: Oligomeric Aβ clearance from medium by microglia; format: cell-based, mouse; settings: 1 μM pretreatment 24 hours, then 0.5 μM oAβ 18 hours
Procedure: WT or A1-microglia were treated with K604 at 1 μM in DMEM/F-12 (50:50) with 10% FBS for 24 hours. Control (Veh) or K604-treated microglia were subsequently incubated with 0.5 μM oAβ in serum-free DMEM/F-12 (50:50) containing 10 μg/ml BSA for 18 hours. At the end of incubation, the media were collected and the residual oAβ levels were detected by western blot analysis. Quantification was performed with image J software (mean±SEM, ***p<0.001).
Primary microglia from normal (WT) and Acat1-knockout (A1−) mouse brains were cultured in vitro. Oligomeric Aβ42 (0.5 μM) in serum-free DMEM/F-12 (50:50) medium containing 10 μg/ml BSA was added to the culture and the culture was incubated for 0, 3, 6, 12 or 18 hours. The remaining Aβ levels (1+2+3+4mers) in the media were analyzed by western blot analysis.
Clearance of oAβ in WT microglia and WT microglia pretreated with the ACAT1-selective inhibitor K604 was also determined.

mouse ACAT1 = mouse ACAT1 (Mus musculus (Mouse), UniProt Q61263); test: ACAT1 western blot in NIH-3T3 fibroblasts transfected with microRNA; format: cell-based; settings: 48 hours post-transfection, GFP-positive cells
Source text: NIH-3T3 mouse fibroblasts were transiently transfected with one of several rAAV vectors encoding EmGFP and microRNA (miR) #52, #53, #54 or #55. Forty-eight hours post-transfection, GFP-positive cells were harvested by FACS. GFP-positive cells were washed then lysed in 10% SDS and syringe homogenized. Twenty microgram of protein per sample was subjected to SDS-PAGE. After western blot analysis, bands were quantified with ImageJ. ACAT1 intensity was normalized to GAPDH as a loading control and expressed as relative intensity.
Four different siRNA molecules (#52-#55; SEQ ID NOs:37-40; Table 3) targeting the mouse Acat1 gene were inserted into an endogenous mouse microRNA (miR) scaffold using Invitrogen's RNAi design tool. The artificial miRs were ligated into the mammalian expression vector pcDNA6.2-GW/EmGFP-miR. These. […] The miRs were delivered to the cells using a standard cDNA transfection protocol.

human ACAT2 = human ACAT2 (Homo sapiens (Human), UniProt O75908); settings: read-out: IC50 hACAT-2; cited from earlier work
Chain of human ACAT2 (O75908 whole entry): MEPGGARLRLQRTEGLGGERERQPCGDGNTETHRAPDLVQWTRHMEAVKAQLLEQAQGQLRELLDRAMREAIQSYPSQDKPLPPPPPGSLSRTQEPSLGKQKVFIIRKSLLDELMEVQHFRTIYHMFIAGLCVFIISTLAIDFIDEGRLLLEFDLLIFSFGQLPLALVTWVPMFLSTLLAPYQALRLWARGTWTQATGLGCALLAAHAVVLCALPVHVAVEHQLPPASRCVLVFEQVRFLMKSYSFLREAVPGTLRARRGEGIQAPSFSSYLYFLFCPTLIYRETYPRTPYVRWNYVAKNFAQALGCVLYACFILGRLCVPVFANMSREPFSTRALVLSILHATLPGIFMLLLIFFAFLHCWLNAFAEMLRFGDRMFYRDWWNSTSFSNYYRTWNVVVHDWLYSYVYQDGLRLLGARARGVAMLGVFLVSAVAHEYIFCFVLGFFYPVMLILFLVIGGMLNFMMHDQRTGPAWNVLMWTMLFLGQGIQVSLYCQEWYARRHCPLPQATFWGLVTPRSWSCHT

CC(C)[C@@H](O)CC[C@@H](C)[C@H]1CC[C@H]2[C@@H]3CC=C4C[C@@H](O)CC[C@]4(C)[C@H]3CC[C@]12C [24SOH, 24S-hydroxycholesterol]
HMGR protein content ([1]; 1 μM, within 3 hours): rapidly decreased | hAPP protein content ([1]; 1 μM, within 3 hours): rapidly decreased | hAPP mRNA level ([1]; 1-5 μM): without affecting | hAPP protein content ([1]; 1-5 μM): rapid decline

CC(=O)N[C@@H](CC(C)C)C(=O)N[C@H](C(=O)N[C@H](C=O)CCCCN)C(C)C [Ac-LVK-CHO] (Ac-Leu-Val-Lys-aldehyde)
difference in oAβ42 degradation between WT and A1-microglia (WT or A1-microglia): abolished

CC(C)c1cc(C(C)C)c(CC(=O)NS(=O)(=O)Oc2c(C(C)C)cccc2C(C)C)c(C(C)C)c1 [CI 1011]
amyloid plaques (AD mice; mouse): significantly reduced | cognitive deficits (AD mice; mouse): rescued | mature/immature ratio of hAPP (AD mice; mouse): decreases

CCCCCCCC[C@H](SCCCCCC)C(=O)Nc1c(SC)cc(C)nc1SC [CP-113,818]
spatial learning ([2]; mouse, in vivo): slightly improved | ectodomain shedding of endogenous APP in the brain ([2]; nontransgenic littermates): reduced | reduction of accumulation of amyloid plaques ([2]; two months of treatment): 88%-99% | reduction of membrane/insoluble Amyloid β levels ([2]; two months of treatment): 83%-96% | processing of both human APP and mouse APP (AD mice): inhibits | amyloid plaques (AD mice; mouse): significantly reduced | cognitive deficits (AD mice; mouse): rescued

CSc1cc(C)nc(SC)c1NC(=O)CN1CCN(CCSc2nc3ccccc3[nH]2)CC1 [K-604]
enhancement of ability to clear oAβ42 from the medium (WT microglia): up to 65% | oAβ degradation in microglia (WT microglia): promotes oAβ degradation

miR Negative Control: negative control miR 5′-TACTGCGCGTGGAGACG-3′ (SEQ ID NO:46), matches no known vertebrate gene (chemistry not given here)
Relative Intensity (ACAT1 normalized to GAPDH) (mouse ACAT1): 1.02

saucerneol B
IC50 (human ACAT2): 124 µM
